We go through 7 compounds from ChEMBL document CHEMBL1201862, “PubChem BioAssay data set” (2004).

Test systems include LOX IMVI; DU-145; NCI-H522; 786-0; K562; UACC-62; TK-10; Hs-578T; SK-MEL-5; A549; HT-29; HOP-62; MCF7; RPMI-8226; SF-539; HCT-116; HOP-92; SK-OV-3; SF-268; COLO 205.
Holding throughout (experiment): DTP human tumour cell line panel, 48 h

The structures appear in SMILES notation.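 All cell lines were grown in 96-well plates and treated with compound for 48 hours. GI50: concentration for 50% inhibition of growth.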 Calls of active or inactive are those of the source. Cut-off read from the data, not from the text of the source: active = GI50 up to about 1.1 µM and inactive = higher. Bounds are passed on as bounds.

For `CCCCCCCCCC1CC(=O)NCC(=O)NC(C(C)C)C(=O)NC(CC(C)C)C(=O)NC(C)C(=O)NC(C(C)C)C(=O)O1` (stereo not given), the GI50 with LOX IMVI was 7.96 µM (inactive); in the assay with DU-145, 21.9 µM (inactive); in the assay with NCI-H522, 14 µM (inactive); in the assay on 786-0, 12.2 µM (inactive); in the assay with K562 it was 16.8 µM (inactive); in the assay on UACC-62, 25.1 µM (inactive). Further, the GI50 with TK-10 is 24.3 µM (inactive); with Hs-578T, 18 µM (inactive); in the assay with SK-MEL-5 it was 17.3 µM (inactive); with A549 it was 17.2 µM (inactive); in the assay on HT-29 it was 5.9 µM (inactive); in the assay on HOP-62 it was 22.5 µM (inactive). The GI50 in the assay with MCF7 was 17.8 µM (inactive); in the assay on RPMI-8226, 17.1 µM (inactive); in the assay on SF-539, 19.1 µM (inactive); in the assay with HCT-116, 14.8 µM (inactive); in the assay on HOP-92 it was 15.5 µM (inactive); in the assay on SK-OV-3, 16.6 µM (inactive). The GI50 is 4.55 µM (inactive) with SF-268 and 50.4 µM (inactive) in the assay with COLO 205.

With `CC1=C(C)CC(C#N)(C#N)C(C#N)(C#N)C1`, the GI50 was > 10 µM (inactive) in the assay on LOX IMVI; > 10 µM (inactive) in the assay with DU-145; 1 µM (active) in the assay on NCI-H522; > 4.94 µM (inactive) in the assay with 786-0; 2.2 µM (inactive) in the assay with K562; > 6.58 µM (inactive) in the assay with UACC-62. Moreover, the GI50 is > 5.05 µM (inactive) with TK-10; > 10 µM (inactive) with Hs-578T; > 6.19 µM (inactive) in the assay on SK-MEL-5; > 10 µM (inactive) with A549; > 5.78 µM (inactive) in the assay with HT-29; > 10 µM (inactive) in the assay on HOP-62. The GI50 is > 5.65 µM (inactive) in the assay with MCF7; 2.18 µM (inactive) in the assay with RPMI-8226; > 10 µM (inactive) with SF-539; > 4.91 µM (inactive) in the assay on HCT-116; > 3.28 µM (inactive) in the assay with HOP-92; > 10 µM (inactive) in the assay on SK-OV-3. Further, the GI50 in the assay with SF-268 is > 10 µM (inactive); in the assay on COLO 205 it was 4.21 µM (inactive).

As to `CN1CN(c2ccccc2)C2(CCN(C(=O)OC(C)(C)C)CC2)C1=O`, the GI50 in the assay on LOX IMVI is > 100 µM (inactive); with DU-145, > 100 µM (inactive); with NCI-H522, > 100 µM (inactive); in the assay with 786-0, > 100 µM (inactive); in the assay on K562, 75.3 µM (inactive); in the assay with UACC-62, > 100 µM (inactive). Also, the GI50 with TK-10 was > 100 µM (inactive); in the assay with Hs-578T it was 57 µM (inactive); in the assay on SK-MEL-5, > 100 µM (inactive); in the assay with A549, > 100 µM (inactive); with HT-29 it was > 100 µM (inactive); with HOP-62, > 100 µM (inactive). The GI50 was > 100 µM (inactive) in the assay with MCF7; 98.2 µM (inactive) with RPMI-8226; > 100 µM (inactive) in the assay with SF-539; > 100 µM (inactive) with HCT-116; 32.4 µM (inactive) in the assay with HOP-92; > 100 µM (inactive) with SK-OV-3. The GI50 in the assay on SF-268 and in the assay with COLO 205 was > 100 µM (inactive) throughout.

`COC1=C(OC)C(=O)c2cc(C)c(=O)c(C)cc2C1=O`: the GI50 was 11.2 µM (inactive) with LOX IMVI; 16.9 µM (inactive) in the assay on DU-145; 14.6 µM (inactive) in the assay with NCI-H522; 11.9 µM (inactive) in the assay on 786-0; 3.19 µM (inactive) in the assay on K562; 13.4 µM (inactive) in the assay with UACC-62. Besides, the GI50 with TK-10 is 19.1 µM (inactive); in the assay on Hs-578T, 23.1 µM (inactive); with SK-MEL-5, 15.8 µM (inactive); with A549, 20.2 µM (inactive); with HT-29, 22.1 µM (inactive); in the assay on HOP-62, 21.3 µM (inactive). The GI50 with MCF7 is 17.9 µM (inactive); with RPMI-8226 it was 5.69 µM (inactive); with SF-539, 18.2 µM (inactive); in the assay with HCT-116, 15.3 µM (inactive); with HOP-92, 16.4 µM (inactive); in the assay on SK-OV-3, 22 µM (inactive). For the same compound, the GI50 with SF-268 is 13.6 µM (inactive); with COLO 205, 19.1 µM (inactive).

Regarding `COC(=O)c1cc2c(cc1O)[C@@H](NC(C)=O)CCc1cc(OC)c(OC)c(OC)c1-2`, the GI50 was 0.0501 µM (active) in the assay on LOX IMVI; 0.064 µM (active) with DU-145; 0.0222 µM (active) in the assay with NCI-H522; 0.0328 µM (active) with 786-0; 0.0412 µM (active) in the assay with K562; 0.0692 µM (active) in the assay with UACC-62. Also, the GI50 in the assay with TK-10 was > 10 µM (inactive); in the assay with Hs-578T, 0.017 µM (active); in the assay with SK-MEL-5 it was 0.0235 µM (active); in the assay with A549, 0.0605 µM (active); with HT-29, 0.044 µM (active); in the assay on HOP-62, 0.0946 µM (active). For the same compound, the GI50 was < 0.01 µM (active) in the assay with MCF7; 0.0668 µM (active) in the assay with RPMI-8226; 0.0294 µM (active) in the assay on SF-539; 0.0274 µM (active) in the assay on HCT-116; 0.0647 µM (active) in the assay with HOP-92; 0.0951 µM (active) in the assay with SK-OV-3. Also, the 50% growth inhibitory concentration (GI50) in the assay with SF-268 was 0.0792 µM (active); in the assay with COLO 205, 0.029 µM (active).

For the compound `Nc1cccc(CCN2CCN(CCCc3ccccc3)CC2)c1`, the GI50 with LOX IMVI was 18.1 µM (inactive); in the assay with DU-145, 55.1 µM (inactive); in the assay with NCI-H522, 16.5 µM (inactive); in the assay with 786-0, 18.2 µM (inactive); with K562, 12.9 µM (inactive); in the assay on UACC-62, 21.8 µM (inactive). In addition, the GI50 with TK-10 is 74.1 µM (inactive); in the assay with Hs-578T, 25.1 µM (inactive); in the assay with SK-MEL-5, 20.1 µM (inactive); with A549 it was 34.4 µM (inactive); with HT-29 it was 13.7 µM (inactive); in the assay on HOP-62, 36.5 µM (inactive). Moreover, the GI50 with MCF7 was 19.2 µM (inactive); in the assay with RPMI-8226, 33.2 µM (inactive); in the assay with SF-539, 22.2 µM (inactive); with HCT-116, 17.6 µM (inactive); in the assay on HOP-92, 4.11 µM (inactive); in the assay on SK-OV-3, > 100 µM (inactive). The GI50 in the assay on SF-268 is 58.2 µM (inactive); with COLO 205 it was 19.5 µM (inactive).

For the compound `O=C1CC(n2cccc2)c2c(Br)sc(Br)c21` (stereo not given), the GI50 is 6.73 µM (inactive) with LOX IMVI; 16.6 µM (inactive) with DU-145; 1.49 µM (inactive) with NCI-H522; 18.3 µM (inactive) in the assay with 786-0; 14.5 µM (inactive) with K562; 15.9 µM (inactive) in the assay with UACC-62. Also, the GI50 was 19.2 µM (inactive) in the assay with TK-10; 25.1 µM (inactive) in the assay on Hs-578T; 16 µM (inactive) in the assay on SK-MEL-5; 21 µM (inactive) in the assay on A549; 16.6 µM (inactive) in the assay on HT-29; 22.1 µM (inactive) in the assay on HOP-62. In addition, the GI50 is 12 µM (inactive) with MCF7; 8.24 µM (inactive) in the assay on RPMI-8226; 17.6 µM (inactive) with SF-539; 15.3 µM (inactive) in the assay on HCT-116; 16.1 µM (inactive) in the assay with HOP-92; 19.4 µM (inactive) in the assay with SK-OV-3. Further, the GI50 is 14.8 µM (inactive) in the assay with SF-268 and 16.9 µM (inactive) in the assay with COLO 205.
